Results from patent publication US20020198315A1, “Salts of peptides with carboxy-terminated polyesters” (priority 1992, published 2002).

Assays:
[1] = Dissolution / solubility in dichloromethane; assay type: physicochemical
Protocol: To this solution was added trifluoroacetic acid (50 μl), and the mixture was stirred vigorously.
The drug solution was added to the copolymer solution and was mixed thoroughly. This mixture was then added dropwise to liquid nitrogen to freeze it as small beads. The solid material was freeze dried for two days using an Edwards high vacuum freeze drier, and the dried material was further dried at 50-55° C. in a vacuum oven for 24 hours.
The peptide known as Substance P, in the form of its acetate salt (ex Sigma, 2 mg) was added to dichloromethane (3 ml) and thoroughly agitated.
Lys^8-vasopressin acetate salt (2 mg, ex Sigma) was added to dichloromethane (3 ml) and agitated.
(i) Dichloromethane (4 ml) was added to a freeze-dried preparation of ZD6003 (39.72 mg).
A lactide/glycolide copolymer (75/25, 364.1 mg, Mw=16,800 by size exclusion chromatography, polydispersity=2.2, ex Boehringer Ingelheim) was added.

[2] = cited from earlier work

Substance P
behaviour in dichloromethane (dissolves or not), in words [1]: showed no indication of dissolving

CC(C)C[C@H](NC(=O)[C@@H](COC(C)(C)C)NC(=O)[C@H](Cc1ccc(O)cc1)NC(=O)[C@H](CO)NC(=O)[C@H](Cc1c[nH]c2ccccc12)NC(=O)[C@H](Cc1cnc[nH]1)NC(=O)[C@@H]1CCC(=O)N1)C(=O)N[C@@H](CCCNC(=N)N)C(=O)N1CCC[C@H]1C(=O)NNC(N)=O [goserelin, [D-Ser(Bu^t)^6, Azgly^10]-LHRH]
metabolic half-life [2]: 4 to 6 h

Lys^8-vasopressin acetate salt
behaviour in dichloromethane (dissolves or not), in words [1]: showed no indication of dissolving

[Het^−1, Arg^11, Ser^17,27,60,65] human G-CSF (granulocyte-colony stimulating factor) modified with polyethylene glycol 5000 [ZD6003]
behaviour in dichloromethane (dissolves or not), in words [1]: opaque dispersion of drug in the solvent

CC(C)C[C@H](NC(=O)[C@@H](COC(C)(C)C)NC(=O)[C@H](Cc1ccc(O)cc1)NC(=O)[C@H](CO)NC(=O)[C@H](Cc1c[nH]c2ccccc12)NC(=O)[C@H](Cc1cnc[nH]1)NC(=O)[C@@H]1CCC(=O)N1)C(=O)N[C@@H](CCCNC(=N)N)C(=O)N1CCC[C@H]1C(=O)NNC(N)=O [Goserelin acetate]
goserelin in benzyl benzoate supernatant, in words (40° C., stirred, aliquots after 2 and 9 Days, limit of detection 0.2 μg/ml): No goserelin was detectable in either sample | equilibrium solubility of goserelin in benzyl benzoate (estimated) (at 40° C.): less than 0.2 μg/mg | solubility in benzyl benzoate, in words (lipophilic solvents such as benzyl benzoate): not soluble
